This is an account of results in the supplement of paper PMC3770661.

Counter-ions that a name gives are not always drawn. ± gives the uncertainty stated by the source.

This assay concerns HepG2 (L1.3 5'UTR promoter firefly luciferase reporter). As to the kind of experiment: L1 promoter activity (FLuc/RLuc) relative to DMSO vehicle control (% of control); higher = stronger L1 promoter activation.
[1] abbreviates: concentration (uM unless unit written): 5, treatment time: 6 h.
Where [2] appears, read: concentration (uM unless unit written): 5, treatment time: 24 h.
[3] abbreviates: concentration (uM unless unit written): 10, treatment time: 6 h.
[4] abbreviates: concentration (uM unless unit written): 10, treatment time: 24 h.
Where [5] appears, read: concentration (uM unless unit written): 125, treatment time: 6 h.
Setting [6] is: concentration (uM unless unit written): 125, treatment time: 24 h.
Where [7] appears, read: concentration (uM unless unit written): 100, treatment time: 6 h.
Where [8] appears, read: concentration (uM unless unit written): 250, treatment time: 6 h.
Where [9] appears, read: concentration (uM unless unit written): 500, treatment time: 6 h.
Where [10] appears, read: concentration (uM unless unit written): 500, treatment time: 24 h.
[11] abbreviates: concentration (uM unless unit written): 50, treatment time: 6 h.
Setting [12] is: concentration (uM unless unit written): 50, treatment time: 24 h.
[13] abbreviates: concentration (uM unless unit written): 100, treatment time: 24 h.
The mark [14] stands for this setting: concentration (uM unless unit written): 2500, treatment time: 6 h.
Where [15] appears, read: concentration (uM unless unit written): 250, treatment time: 24 h.
[16] abbreviates: concentration (uM unless unit written): 1000, treatment time: 6 h.
[17] abbreviates: concentration (uM unless unit written): 1000, treatment time: 24 h.
Setting [18] is: concentration (uM unless unit written): 1, treatment time: 6 h.
Where [19] appears, read: concentration (uM unless unit written): 1, treatment time: 24 h.
[20] abbreviates: concentration (uM unless unit written): 3, treatment time: 6 h.
[21] abbreviates: concentration (uM unless unit written): 3, treatment time: 24 h.
Setting [22] is: concentration (uM unless unit written): 25, treatment time: 6 h.
Setting [23] is: concentration (uM unless unit written): 25, treatment time: 24 h.

In the case of `CC(=O)O[C@H]1C(=O)[C@@]2(C)[C@H]([C@H](OC(=O)c3ccccc3)[C@]3(O)C[C@H](OC(=O)[C@H](O)[C@@H](NC(=O)c4ccccc4)c4ccccc4)C(C)=C1C3(C)C)[C@]1(OC(C)=O)CO[C@@H]1C[C@@H]2O` [Taxol], the L1 promoter activity reads like this: under setting [1], 104 ± 17; under setting [2], 86.9 ± 18; under setting [3], 123 ± 35; under setting [4], 81.9 ± 11; (concentration (uM unless unit written): 20, treatment time: 6 h) 96.8 ± 14; (concentration (uM unless unit written): 20, treatment time: 24 h) 76.3 ± 13.
Turning to `CN(Cc1cc(Br)cc(Br)c1N)C1CCCCC1` [Bromhexine hydrochloride], the L1 promoter activity is 108 ± 14 (concentration (uM unless unit written): 62.5, treatment time: 6 h); 102 ± 7.2 (concentration (uM unless unit written): 62.5, treatment time: 24 h); 97.8 ± 12 under setting [5]; 98.7 ± 12 under setting [6].
In the case of `CS(=O)(=O)OCCCCOS(C)(=O)=O` [Busulfan], the L1 promoter activity came out at 111 ± 33 under setting [7], 119 ± 29 under setting [8], 131 ± 39 under setting [9] and 122 ± 39 under setting [10].
In the case of `N.N.[Cl][Pt][Cl]` [Cisplatin], the L1 promoter activity is 109 ± 13 under setting [3]; 98.4 ± 13 under setting [4]; 117 ± 23 under setting [11]; 105 ± 7.7 under setting [12]; 148 ± 40 under setting [7]; 95.4 ± 19 under setting [13].
In the case of `CC[C@H](C)C(=O)O[C@H]1C[C@H](O)C=C2C=C[C@H](C)[C@H](CC[C@@H](O)C[C@@H](O)CC(=O)O)[C@H]21` [Pravastatin], the L1 promoter activity runs as follows: under setting [14], 130 ± 8.2; (concentration (uM unless unit written): 2500, treatment time: 24 h) 102 ± 7.9.
Take `Cc1cc(CC(=O)O)n(C)c1C(=O)c1ccc(Cl)cc1` [Zomepirac]: the L1 promoter activity is 102 ± 9.6 under setting [9] and 86.3 ± 6.3 under setting [10].
`CC(C)Cc1ccc(C(C)C(=O)O)cc1` (stereo not given) [Ibuprofen]: the L1 promoter activity under setting [8] was found to be 118 ± 8.4; the L1 promoter activity under setting [15] came out at 90.8 ± 3.5; the L1 promoter activity under setting [9] came to 99.7 ± 9.8; the L1 promoter activity under setting [10] was 89.6 ± 10; the L1 promoter activity under setting [16] turned out to be 97.2 ± 8.2; the L1 promoter activity under setting [17] came to 74.9 ± 7.6.
`CCCc1nc2c(C)cc(-c3nc4ccccc4n3C)cc2n1Cc1ccc(-c2ccccc2C(=O)O)cc1` [Telmisartan]: the L1 promoter activity is, setting by setting: (concentration (uM unless unit written): 1.25, treatment time: 6 h) 104 ± 11; (concentration (uM unless unit written): 1.25, treatment time: 24 h) 112 ± 8; (concentration (uM unless unit written): 2.5, treatment time: 6 h) 105 ± 8.6; (concentration (uM unless unit written): 2.5, treatment time: 24 h) 114 ± 9.7; under setting [1], 115 ± 3.5; under setting [2], 114 ± 9. For the same molecule, the L1 promoter activity is, setting by setting: under setting [3], 119 ± 15; under setting [4], 119 ± 3.6.
On to `Nc1nc2c(ncn2COC(CO)CO)c(=O)[nH]1` [Ganciclovir], for which the L1 promoter activity is 109 ± 17 under setting [9], 98.3 ± 6.1 under setting [10], 115 ± 16 under setting [16] and 104 ± 11 under setting [17].
As to `CC[C@H](C)C(=O)O[C@H]1CCC=C2C=C[C@H](C)[C@H](CC[C@@H]3C[C@@H](O)CC(=O)O3)[C@H]21` [Mevastatin], the L1 promoter activity amounted to 114 ± 22 under setting [18]; 118 ± 31 under setting [19]; 101 ± 24 under setting [20]; 105 ± 12 under setting [21]; 123 ± 43 (concentration (uM unless unit written): 6, treatment time: 6 h); 103 ± 18 (concentration (uM unless unit written): 6, treatment time: 24 h).
In the case of `O=C1NC(=S)NC(=O)C1C(=O)Nc1ccccc1` [Merbarone], the L1 promoter activity by setting is: under setting [18], 112 ± 12; under setting [19], 113 ± 13; under setting [3], 140 ± 17; under setting [4], 147 ± 17; under setting [11], 171 ± 27; under setting [12], 219 ± 30. The L1 promoter activity runs as follows: under setting [7], 182 ± 16; under setting [13], 198 ± 32.
`CN1CCC(=C2c3ccccc3C=Cc3ccccc32)CC1` [Cyproheptadine hydrochloride sesquihydrate]: the L1 promoter activity by setting is: under setting [11], 90.1 ± 17; under setting [12], 70.2 ± 14; under setting [7], 74.7 ± 30; (concentration (uM unless unit written): 200, treatment time: 6 h) 47.2 ± 12.
On to `COc1ccc2c(c1)c(CC(=O)O)c(C)n2C(=O)c1ccc(Cl)cc1` [Indometacin], for which the L1 promoter activity reads like this: under setting [8], 99.1 ± 10; under setting [15], 83 ± 11; under setting [9], 92.6 ± 13; under setting [10], 59.3 ± 6.8; under setting [16], 67.2 ± 10.
As to `CC(=O)S[C@@H]1CC2=CC(=O)CC[C@]2(C)[C@H]2CC[C@@]3(C)[C@@H](CC[C@@]34CCC(=O)O4)[C@H]12` [Spironolactone], the L1 promoter activity runs as follows: under setting [18], 104 ± 9.8; under setting [19], 89.3 ± 3.8; under setting [20], 97.8 ± 9.3; under setting [21], 100 ± 8.9; (concentration (uM unless unit written): 30, treatment time: 6 h) 88.5 ± 9.3; (concentration (uM unless unit written): 30, treatment time: 24 h) 111 ± 12.
Take `NC(=O)c1ccccc1O` [Salicylamide]: the L1 promoter activity came out at 146 ± 22 (concentration (uM unless unit written): 1250, treatment time: 6 h); 175 ± 16 (concentration (uM unless unit written): 1250, treatment time: 24 h); 139 ± 9.1 under setting [14]; 151 ± 25 (concentration (uM unless unit written): 5000, treatment time: 6 h).
As for `C=C(C)[C@H]1Cc2c(ccc3c2O[C@@H]2COc4cc(OC)c(OC)cc4[C@@H]2C3=O)O1` [Rotenone], the L1 promoter activity reads like this: (concentration (uM unless unit written): 0.075, treatment time: 6 h) 113 ± 28; (concentration (uM unless unit written): 0.075, treatment time: 24 h) 90.8 ± 3.4; under setting [3], 97.8 ± 8.2; under setting [11], 93.6 ± 11.
As to `COC(=O)C1=C(C)NC(C)=C(C(=O)OC)C1c1ccccc1[N+](=O)[O-]` [Nifedipine], the L1 promoter activity runs as follows: under setting [3], 96.1 ± 10; under setting [4], 104 ± 8.8; under setting [22], 98.4 ± 2.3; under setting [23], 126 ± 5.6; under setting [11], 97.2 ± 12; under setting [12], 104 ± 7. The molecule further came in with an L1 promoter activity under setting [7] of 88.6 ± 24 and an L1 promoter activity under setting [13] of 91.2 ± 2.6.
On to `CC(C)OC(=O)C(C)(C)Oc1ccc(C(=O)c2ccc(Cl)cc2)cc1` [Fenofibrate], for which the L1 promoter activity runs as follows: under setting [3], 117 ± 9.8; under setting [4], 108 ± 5.3; under setting [11], 126 ± 11; under setting [12], 127 ± 10; under setting [7], 141 ± 12; under setting [13], 163 ± 24.
Turning to `CC(C)(C(=O)c1cccnc1)c1cccnc1` [Metyrapone], the L1 promoter activity was 121 ± 7.4 under setting [5]; 111 ± 11 under setting [6]; 142 ± 18 under setting [8]; 121 ± 11 under setting [15]; 127 ± 3.5 under setting [9]; 135 ± 14 under setting [10].
`CC1=CC(=O)c2ccccc2C1=O` [Menadione] yielded an L1 promoter activity (concentration (uM unless unit written): 17.5, treatment time: 6 h) of 116 ± 11.
As to `CC1=C2C(=CO[C@H](C)[C@H]2C)C(O)=C(C(=O)O)C1=O` [Citrinin], the L1 promoter activity runs as follows: (concentration (uM unless unit written): 45, treatment time: 6 h) 101 ± 12; (concentration (uM unless unit written): 45, treatment time: 24 h) 104 ± 14; (concentration (uM unless unit written): 90, treatment time: 6 h) 102 ± 10; (concentration (uM unless unit written): 90, treatment time: 24 h) 134 ± 25.
For `COc1cc([C@@H]2c3cc4c(cc3[C@@H](O[C@@H]3O[C@@H]5CO[C@@H](C)O[C@H]5[C@H](O)[C@H]3O)[C@H]3COC(=O)[C@H]23)OCO4)cc(OC)c1O` [Etoposide], the L1 promoter activity came to 90.4 ± 7.5 under setting [3]; 95.7 ± 4.1 under setting [4]; 100 ± 30 under setting [22]; 108 ± 16 under setting [23]; 98.6 ± 21 under setting [11]; 138 ± 70 under setting [12].
